Reference: EP0723577B1, “DETERGENT COMPOSITIONS CONTAINING SILVER ANTI-TARNISHING AGENTS” (UNILEVER N.V., priority 1993, dated 1995)

Tests used:
[1] = Silver plates held in the compositions for 25 minutes, evaluated for tarnishing; details: for Effective Silver Anti-Tarnishing: 4 wt.% epsilon-phthalimido peroxyhexanoic acid
Method: (§1) A comparison of anti-tarnishing performance of purine class compounds within the scope of the invention and azole compounds outside the invention was conducted. The selected compounds were incorporated in an amount of 1 wt.% in a machine dishwashing composition containing 4 wt.% epsilon-phthalimido peroxyhexanoic acid as the bleaching agent. The pH values of the compositions were adjusted by the addition of a 50% solution of sodium hydroxide or concentrated sulfuric acid, as necessary.
(§2) Copper plates and silver plates were held in each of the compositions for 25 minutes, removed, rinsed with deionized water and evaluated for tarnishing. […]
as §1, with “1,3-N azole” for “purine class”
as §2

[2] = pKa determination by titration of a 0.001M solution with 1N NaOH; assay type: physicochemical
Method: As used herein, the term "pKa" means a pH value at which 50% of the heterocyclic ring moieties of the compound (particularly the five-membered rings in the case of the purine class compounds) are in ionic form.
The pH of this solution was adjusted to 3.0 with H2SO4. The solution was then titrated with 1N NaOH to pH 11.0. A plot of mls. NaOH vs. pH for each sample was prepared. The pKa of the compound is that point where the maximum change in pH as a function of mls. NaOH is observed.

[3] = Tarnish-monitoring experiments in a dishwasher, monitors visually ranked 0 to 6 against the Example 1 reference scale; details: general description, compositions containing the compound
Method: The wash program consisted of a pre-wash at 40°C, a mainwash at 55°C, two intermediate rinses, and a final rinse at 65°C.
The mainwash pH with these compositions was typically 8.7. Silver-plated spoons (2 per run) were the monitors used in the test. The spoons were supplied by Oneida Silversmiths, USA. The monitors were washed in a commercially available hand dishwash liquid and rinsed with deionized water and acetone before use. In the dishwasher the monitors were kept apart from each other in the cutlery basket. At the end of a single-run machine program, the monitors were visually analyzed for the presence of colours and the loss of gloss.
This ranking of spoons was used as a reference scale for all subsequent Examples.

[4] = Example 13: 1 wt.% compound, pH of composition 8.5
[5] = Example 13: 1 wt.% compound, pH of composition 11.0
[6] = Example 13, Tables 20 and 21, read-out: pKa of compounds
[7] = Example 5: 1 wt.% compound, pH of composition 8.5
[8] = Example 5: 1 wt.% compound, pH of composition 11.0
[9] = Example 5: 1 wt.% compound, pH of composition 8.6
[10] = Example 13: 1 wt.% compound, pH of composition 8.6

In the case of `c1nnn[nH]1` [1,2,3,5-Tetrazole], the “pH of compositions in which the compound is effective” value ([1]; Example 13) is reported as “greater than 9.4”, the “effectiveness as a silver anti-tarnishing agent, in words” value (“effectiveness” for short) ([1]; Example 13, pH of 8.5) is reported as “not effective” and the “effectiveness” value ([1]; Example 13, pH of 9.5 and greater) is reported as “effective”. The “Effective Silver Anti-Tarnishing” value [1, 4] was “No (A tarnish score of 3 or less was considered effective as a silver anti-tarnishing compound)”, the “Effective Silver Anti-Tarnishing” value ([1]; Example 13: 1 wt.% compound, pH of composition 9.5) was “Yes (A tarnish score of 3 or less was considered effective as a silver anti-tarnishing compound)” and the “Effective Silver Anti-Tarnishing” value ([1]; Example 13: 1 wt.% compound, pH of composition 10.5) was “Yes (A tarnish score of 3 or less was considered effective as a silver anti-tarnishing compound)”. The “Effective Silver Anti-Tarnishing” value [1, 5] was “Yes (A tarnish score of 3 or less was considered effective as a silver anti-tarnishing compound)” and the pKa [2, 6] was 8.4.
For `c1ccc(-c2ncc[nH]2)cc1` [2-Phenylimidazole, reference compound], the “Effective Silver Anti-Tarnishing” value [1, 7] was “No (A tarnish score of 3 or less was considered effective as a silver anti-tarnishing compound)”, the “Effective Silver Anti-Tarnishing” value [1, 8] was “No (A tarnish score of 3 or less was considered effective as a silver anti-tarnishing compound)” and the “prevention of silver tarnishing, in words” value ([1]; Example 13, pH 11.0) was “did not prevent silver tarnishing”. For the same molecule, the “Effective Silver Anti-Tarnishing” value [1, 4] was “No (A tarnish score of 3 or less was considered effective as a silver anti-tarnishing compound)”, the “Effective Silver Anti-Tarnishing” value [1, 5] was “No (A tarnish score of 3 or less was considered effective as a silver anti-tarnishing compound)” and the pKa [2] was 8.8.
In the case of `Nc1nc[nH]n1` [3-amino-1,2,4-triazole], the “Effective Silver Anti-Tarnishing” value ([1]; Example 13: 1 wt.% compound, pH of composition 8.3) is reported as “Yes (A tarnish score of 3 or less was considered effective as a silver anti-tarnishing compound)” and the pKa [2] is reported as 7.3.
With `Nc1nn[nH]n1` [4-amino-1,2,3,5-tetrazole] the “effectiveness” value ([1]; Example 13, pH of 8.8) was “not effective”, the “Effective Silver Anti-Tarnishing” value ([1]; Example 13: 1 wt.% compound, pH of composition 8.8) was “No (A tarnish score of 3 or less was considered effective as a silver anti-tarnishing compound)” and the pKa [2] was 8.1.
For `O=[N+]([O-])c1ccc2cn[nH]c2c1` [6-Nitroindazole, reference compound], the “Effective Silver Anti-Tarnishing” value [1, 7] was “No (A tarnish score of 3 or less was considered effective as a silver anti-tarnishing compound)”, the “Effective Silver Anti-Tarnishing” value [1, 8] was “No (A tarnish score of 3 or less was considered effective as a silver anti-tarnishing compound)” and the “Effective Silver Anti-Tarnishing” value [1, 4] was “No (A tarnish score of 3 or less was considered effective as a silver anti-tarnishing compound)”. For the same molecule, the “Effective Silver Anti-Tarnishing” value [1, 5] was “No (A tarnish score of 3 or less was considered effective as a silver anti-tarnishing compound)” and the pKa [2] was 6.8.
In the case of `Nc1ncnc2nc[nH]c12` [Adenine], the “prevention of silver tarnishing, in words” value ([1]; Example 5, pH 6.9) is reported as “did not prevent tarnishing”, the “prevention of silver tarnishing, in words” value ([1]; Example 5, pH 8.6) is reported as “prevented silver tarnishing” and the “Effective Silver Anti-Tarnishing” value ([1]; Example 5: 1 wt.% compound, pH of composition 6.9) is reported as “No (A tarnish score of 3 or less was considered effective as a silver anti-tarnishing compound)”. For the same molecule, the “Effective Silver Anti-Tarnishing” value [1, 9] was “Yes (A tarnish score of 3 or less was considered effective as a silver anti-tarnishing compound)” and the pKa [2] was 7.2.
In the case of `Oc1ncnc2[nH]ncc12` [Allopurinol], the “Effective Silver Anti-Tarnishing” value [1, 9] is reported as “Yes (A tarnish score of 3 or less was considered effective as a silver anti-tarnishing compound)” and the pKa [2] is reported as 6.1.
For `N=C(N)NCCC[C@H](N)C(=O)O` [Arginine, reference compound], the “Effective Silver Anti-Tarnishing” value [1, 9] was “No (A tarnish score of 3 or less was considered effective as a silver anti-tarnishing compound)”, the “Effective Silver Anti-Tarnishing” value [1, 10] was “No (A tarnish score of 3 or less was considered effective as a silver anti-tarnishing compound)” and the pKa [2] was 9.1. The pKa of compounds [2] was 9.1.
For `c1ccc2[nH]cnc2c1` [Benzimidazole], the “Effective Silver Anti-Tarnishing” value [1, 10] was “Yes (A tarnish score of 3 or less was considered effective as a silver anti-tarnishing compound)” and the pKa of compounds [2] was 5.5.
In the case of `Nc1nc2nc[nH]c2c(=O)[nH]1` [Guanine], the “prevention of silver tarnishing, in words” value ([1]; Example 5, pH 7.0) is reported as “did not prevent tarnishing”, the “prevention of silver tarnishing, in words” value ([1]; Example 5, pH 8.6) is reported as “prevented silver tarnishing” and the “Effective Silver Anti-Tarnishing” value ([1]; Example 5: 1 wt.% compound, pH of composition 7.0) is reported as “No (A tarnish score of 3 or less was considered effective as a silver anti-tarnishing compound)”. For the same molecule, the “Effective Silver Anti-Tarnishing” value [1, 9] was “Yes (A tarnish score of 3 or less was considered effective as a silver anti-tarnishing compound)” and the pKa [2] was 6.7.
In the case of `N[C@@H](Cc1c[nH]cn1)C(=O)O` [Histidine], the “Effective Silver Anti-Tarnishing” value [1, 10] is reported as “Yes (A tarnish score of 3 or less was considered effective as a silver anti-tarnishing compound)”.
In the case of `O=c1[nH]cnc2nc[nH]c12` [Hypoxanthine], the “Effective Silver Anti-Tarnishing” value [1, 9] is reported as “Yes (A tarnish score of 3 or less was considered effective as a silver anti-tarnishing compound)” and the pKa ([2]; pKa of compounds) is reported as 6.
In the case of `c1c[nH]cn1` [Imidazole], the “Effective Silver Anti-Tarnishing” value [1, 10] is reported as “Yes (A tarnish score of 3 or less was considered effective as a silver anti-tarnishing compound)” and the pKa [2, 6] is reported as 6.9.
With `c1cn[nH]c1` [Pyrazole, reference compound] the “Effective Silver Anti-Tarnishing” value [1, 9] was “No (A tarnish score of 3 or less was considered effective as a silver anti-tarnishing compound)”, the “Effective Silver Anti-Tarnishing” value [1, 10] was “No (A tarnish score of 3 or less was considered effective as a silver anti-tarnishing compound)” and the “prevention of heavy tarnishing of silver and silver-plated articles, in words” value (from here on “prevention of heavy tarnishing … in words”) [3] was “substantially ineffective”. The pKa [2] was 11.5.
For `c1cc[nH]c1` [Pyrrole, reference compound], the “Effective Silver Anti-Tarnishing” value [1, 9] was “No (A tarnish score of 3 or less was considered effective as a silver anti-tarnishing compound)”, the “Effective Silver Anti-Tarnishing” value [1, 10] was “No (A tarnish score of 3 or less was considered effective as a silver anti-tarnishing compound)” and the “prevention of heavy tarnishing … in words” value [3] was “substantially ineffective”.
For `O=c1[nH]c(=O)c2[nH]c(=O)[nH]c2[nH]1` [Uric Acid], the “Effective Silver Anti-Tarnishing” value [1, 9] was “Yes (A tarnish score of 3 or less was considered effective as a silver anti-tarnishing compound)” and the pKa [2] was 4.6.
With `O=c1[nH]c(=O)c2[nH]cnc2[nH]1` [Xanthine] the “Effective Silver Anti-Tarnishing” value [1, 9] was “Yes (A tarnish score of 3 or less was considered effective as a silver anti-tarnishing compound)” and the pKa [2] was 7.
In the case of `c1ccc2[nH]ncc2c1` [indazole, reference compound], the “prevention of heavy tarnishing … in words” value [3] is reported as “substantially ineffective”.
With `c1cncnc1` [pyrimidine, reference compound] the “prevention of heavy tarnishing … in words” value [3] was “substantially ineffective”.
